{"source": "paper PMC6155665", "about": "“Antiplasmodial Activity, Cytotoxicity and Structure-Activity Relationship Study of Cyclopeptide Alkaloids” (Molecules : A Journal of Synthetic Chemistry and Natural …, 2017)", "key": {"P. falciparum strain K1 [1]": {"test_system": "P. falciparum strain K1", "assay": "In vitro antiplasmodial activity", "assay_type": "cell-based", "settings": "Plasmodium falciparum", "method": "(§1) The antiplasmodial and cytotoxic activity determinations of all cyclopeptide alkaloids were performed as reported before. Each experiment was performed at least in triplicate and the average IC50 values were calculated."}, "[2]": {"assay": "Cytotoxicity against MRC-5 cells", "settings": "human", "method": "as §1"}, "Plasmodium falciparum": {"test_system": "Plasmodium falciparum", "settings": "cited from earlier work; for IC50: read-out: antiplasmodial IC50"}, "P. falciparum strain K1 [3]": {"test_system": "P. falciparum strain K1", "parameters": "method as in PMID 27351950, PMID 27933893", "settings": "previously reported by the same group, same test conditions; cited from earlier work"}, "MRC-5 cells": {"test_system": "MRC-5 cells", "settings": "cited from earlier work"}, "[4]": {"settings": "strain K1, average of at least triplicate, read-out: P. falciparum K1 IC50"}, "[5]": {"settings": "read-out: MRC-5 IC50, cytotoxicity, previously reported by the same group"}, "[6]": {"settings": "corresponding to the μg/mL values, Suksamrarn et al."}}, "note": "Like-named read-outs stand apart in the source and are kept apart here.", "data": [{"molecule": "CCN(CC)CCCC(C)Nc1ccnc2cc(Cl)ccc12", "note": "(stereo not shown) [Chloroquine, reference compound]", "values": [{"measurement": "IC50", "setting": "P. falciparum strain K1 [1]; K1, read-out: P. falciparum K1 IC50", "result": 0.15, "unit": "µM"}]}, {"molecule": "CCC(C)[C@@H]1NC(=O)[C@@H]2[C@H](CCN2C(=O)[C@@H](NC)C(C)CC)Oc2ccc(cc2)/C=C\\NC1=O", "note": "(stereo partly shown) [Compound 1, Nummularine-U]", "values": [{"measurement": "IC50", "setting": "[2]; MRC-5 cells", "result": "> 64", "unit": "µM"}, {"measurement": "IC50", "setting": "P. falciparum strain K1 [1]; [4]", "result": "23 ± 8.5", "unit": "µM"}]}, {"molecule": "CN[C@@H](C)C(=O)N[C@H](C(=O)N1CC[C@@H]2Oc3ccc(cc3)/C=C\\NC(=O)[C@H](Cc3ccccc3)NC(=O)[C@H]21)C(C)C", "note": "[Compound 2, Mauritine-F]", "values": [{"measurement": "IC50", "setting": "[2]", "result": "> 64", "unit": "µM"}, {"measurement": "IC50", "setting": "P. falciparum strain K1 [1]; [4]", "result": "34.2 ± 9.14", "unit": "µM"}]}, {"molecule": "CCC(C)[C@@H]1NC(=O)[C@@H]2[C@H](CCN2C(=O)[C@@H](NC(=O)[C@H](Cc2ccccc2)N(C)C)C(C)CC)Oc2ccc(O)c(c2)/C=C\\NC1=O", "note": "(stereo partly shown) [Compound 3, Spinanine-B]", "values": [{"measurement": "IC50", "setting": "[2]", "result": "> 64", "unit": "µM"}, {"measurement": "IC50", "setting": "P. falciparum strain K1 [1]; [4]", "result": "2.1 ± 0.3", "unit": "µM"}]}, {"molecule": "CC(C)C[C@@H]1NC(=O)[C@@H](NC(=O)[C@H](C(C)O)N(C)C)[C@H](c2ccccc2)Oc2ccc(cc2)/C=C\\NC1=O", "note": "(stereo partly shown) [Compound 4, Nummularine-E]", "values": [{"measurement": "IC50", "setting": "[2]; MRC-5 cells", "result": "> 64", "unit": "µM"}, {"measurement": "IC50", "setting": "P. falciparum strain K1 [1]; [4]", "result": "> 64", "unit": "µM"}]}, {"molecule": "CCC(C)[C@@H]1NC(=O)[C@@H]2[C@H](CCN2C(=O)[C@@H](NC(=O)[C@H](Cc2ccccc2)N(C)C)C(C)CC)Oc2ccc(cc2)/C=C\\NC1=O", "note": "(stereo partly shown) [Compound 5, Amphibine-D]", "values": [{"measurement": "IC50", "setting": "[2]", "result": "> 64", "unit": "µM"}, {"measurement": "IC50", "setting": "P. falciparum strain K1 [1]; [4]", "result": "8.9 ± 1.5", "unit": "µM"}]}, {"molecule": "CN[C@@H](C)C(=O)N[C@H](C(=O)N1CC[C@@H]2Oc3ccc(OC)c(c3)/C=C\\NC(=O)[C@H](C(C)C)NC(=O)[C@H]21)C(C)C", "note": "[Compound 6, Jubanine-F]", "values": [{"measurement": "IC50", "setting": "[2]", "result": "> 64", "unit": "µM"}, {"measurement": "IC50", "setting": "P. falciparum strain K1 [1]; [4]", "result": "12.8 ± 2.9", "unit": "µM"}]}, {"molecule": "CCC(C)[C@H](NC(=O)[C@H](C)NC)C(=O)N1CC[C@@H]2Oc3ccc(OC)c(c3)/C=C\\NC(=O)[C@H](C(C)C)NC(=O)[C@H]21", "note": "(stereo partly shown) [Compound 7, Jubanine-G]", "values": [{"measurement": "IC50", "setting": "[2]", "result": "> 64", "unit": "µM"}, {"measurement": "IC50", "setting": "P. falciparum strain K1 [1]; [4]", "result": "4.7 ± 2.4", "unit": "µM"}]}, {"molecule": "CN[C@@H](C)C(=O)N[C@H](C(=O)N1CC[C@@H]2Oc3ccc(OC)c(c3)/C=C\\NC(=O)[C@H](Cc3ccccc3)NC(=O)[C@H]21)C(C)C", "note": "[Compound 8, Nummularine-B]", "values": [{"measurement": "IC50", "setting": "[2]", "result": "> 64", "unit": "µM"}, {"measurement": "IC50", "setting": "P. falciparum strain K1 [1]; [4]", "result": "3.6 ± 1.3", "unit": "µM"}, {"measurement": "antiplasmodial activity against Plasmodium falciparum (in words)", "setting": "Plasmodium falciparum; Panseeta et al.", "result": "moderately active"}, {"measurement": "IC50", "setting": "Plasmodium falciparum; Panseeta et al.", "result": 10.3, "unit": "µM"}]}, {"molecule": "CC[C@H](C)[C@@H]1NC(=O)[C@@H](NC(=O)[C@H](CC(C)C)N(C)C)[C@H](C(C)C)Oc2ccc(cc2)/C=C\\NC1=O", "note": "[Compound 9, Adouetine-X]", "values": [{"measurement": "IC50", "setting": "[2]; MRC-5 cells", "result": "19.1 ± 11.9", "unit": "µM"}, {"measurement": "IC50", "setting": "P. falciparum strain K1 [1]; [4]", "result": "7.5 ± 1.8", "unit": "µM"}]}, {"molecule": "CCC(C)[C@@H](C(=O)N[C@@H]1C(=O)N[C@@H](CC(C)C)C(=O)N/C=C\\c2ccc(cc2)O[C@H]1C(C)C)N(C)C", "note": "(stereo partly shown) [Compound 10, Frangulanine]", "values": [{"measurement": "IC50", "setting": "[2]; MRC-5 cells", "result": "30.6 ± 6.5", "unit": "µM"}, {"measurement": "IC50", "setting": "P. falciparum strain K1 [1]; [4]", "result": "14.9 ± 5.2", "unit": "µM"}]}, {"molecule": "CCC(C)[C@@H](C(=O)N[C@H](C(=O)N[C@@H]1C(=O)N[C@@H](Cc2c[nH]c3ccccc23)C(=O)NCC(=O)c2ccc(cc2)OC1(C)C)C(C)C)N(C)C", "note": "(stereo partly shown) [Compound 11, Hymenocardine]", "values": [{"measurement": "IC50", "setting": "P. falciparum strain K1 [3]", "result": "16.4 ± 6.8", "unit": "µM"}, {"measurement": "IC50", "setting": "MRC-5 cells", "result": "51.1 ± 17.2", "unit": "µM"}]}, {"molecule": "CCC(C)[C@@H](C(=O)N[C@H](C(=O)N[C@@H]1C(=O)N[C@@H](Cc2c[nH]c3ccccc23)C(=O)NCC(O)c2ccc(cc2)OC1(C)C)C(C)C)N(C)C", "note": "(stereo partly shown) [Compound 12, Hymenocardinol]", "values": [{"measurement": "IC50", "setting": "P. falciparum strain K1 [3]", "result": "17.5 ± 8.7", "unit": "µM"}, {"measurement": "IC50", "setting": "MRC-5 cells", "result": "> 64", "unit": "µM"}]}, {"molecule": "CCC(C)[C@@H](C(=O)N[C@H](C(=O)N[C@@H]1C(=O)N[C@@H](Cc2c[nH]c3ccccc23)C(=O)NCC(=O)c2ccc(cc2)OC1(C)C)C(C)C)[N+](C)(C)[O-]", "note": "(stereo partly shown) [Compound 13, Hymenocardine N-oxide]", "values": [{"measurement": "IC50", "setting": "P. falciparum strain K1 [3]", "result": "12.2 ± 6.6", "unit": "µM"}, {"measurement": "IC50", "setting": "MRC-5 cells", "result": "> 64", "unit": "µM"}]}, {"molecule": "CCC(C)[C@H](NC(=O)[C@H](C(C)CC)N(C)C)C(=O)N[C@@H]1C(=O)N[C@@H](Cc2c[nH]cn2)C(=O)NCC(=O)c2ccc(cc2)O[C@H]1C(C)C", "note": "(stereo partly shown) [Compound 14, Hymenocardine-H]", "values": [{"measurement": "IC50", "setting": "P. falciparum strain K1 [3]", "result": "27.9 ± 16.5", "unit": "µM"}, {"measurement": "IC50", "setting": "MRC-5 cells", "result": "> 64", "unit": "µM"}]}, {"molecule": "CCC(C)[C@@H]1NC(=O)[C@@H]2[C@H](CCN2C(=O)[C@H](Cc2c[nH]c3ccccc23)N(C)C)Oc2ccc(OC)c(c2)/C=C\\NC1=O", "note": "(stereo partly shown) [Compound 15, Nummularine-R]", "values": [{"measurement": "IC50", "setting": "P. falciparum strain K1 [3]", "result": "3.2 ± 2.6", "unit": "µM"}, {"measurement": "IC50", "setting": "MRC-5 cells; [5]", "result": "30.6 ± 4", "unit": "µM"}]}, {"molecule": "CCC(C)[C@@H]1NC(=O)[C@@H]2[C@H](CCN2C(=O)[C@H](Cc2c[nH]c3ccccc23)N(C)C)Oc2ccc(O)c(c2)/C=C\\NC1=O", "note": "(stereo partly shown) [Compound 16, O-desmethylnummularine-R]", "values": [{"measurement": "IC50", "setting": "P. falciparum strain K1 [3]", "result": "7.1 ± 1.6", "unit": "µM"}, {"measurement": "IC50", "setting": "MRC-5 cells; [5]", "result": "> 64", "unit": "µM"}]}, {"molecule": "CCC(C)[C@@H]1NC(=O)[C@@H]2[C@H](CCN2C(=O)[C@H](Cc2c[nH]c3ccccc23)N(C)C)Oc2ccc(cc2)/C=C\\NC1=O", "note": "(stereo partly shown) [Compound 17, Hemsine-A]", "values": [{"measurement": "IC50", "setting": "P. falciparum strain K1 [3]", "result": "13.6 ± 9.3", "unit": "µM"}, {"measurement": "IC50", "setting": "MRC-5 cells; [5]", "result": "> 64", "unit": "µM"}]}, {"molecule": "CCC(C)[C@@H]1NC(=O)[C@@H]2[C@H](CCN2C(=O)[C@H](C(C)CC)N(C)C)Oc2ccc(cc2)/C=C\\NC1=O", "note": "(stereo partly shown) [Compound 18, Ramosine-A]", "values": [{"measurement": "IC50", "setting": "P. falciparum strain K1 [3]", "result": "> 32", "unit": "µM"}, {"measurement": "IC50", "setting": "MRC-5 cells; [5]", "result": "> 64", "unit": "µM"}]}, {"molecule": "O=C1N/C=C\\c2ccc(cc2)O[C@@H](c2ccccc2)[C@H](NC(=O)[C@@H]2CCCN2C(=O)/C=C/c2ccccc2)C(=O)N[C@H]1C(O)c1ccccc1", "note": "(stereo partly shown) [Compound 19, Oxyphylline-F]", "values": [{"measurement": "IC50", "setting": "P. falciparum strain K1 [3]", "result": "7.4 ± 3", "unit": "µM"}, {"measurement": "IC50", "setting": "MRC-5 cells; [5]", "result": "31.2 ± 1.4", "unit": "µM"}]}, {"molecule": "CCC(C)[C@H](C(=O)N[C@@H](CC(C)C)C(=O)N1CC[C@@H]2Oc3ccc(OC)c(c3)/C=C\\NC(=O)[C@@H]3CCCN3C(=O)[C@H]21)N(C)C", "note": "(stereo partly shown) [ziziphine-N]", "values": [{"measurement": "antiplasmodial IC50", "setting": "Plasmodium falciparum; Suksamrarn et al.", "result": 3.92, "unit": "µg/mL"}, {"measurement": "IC50", "setting": "Plasmodium falciparum; [6]", "result": 6.4, "unit": "µM"}]}, {"molecule": "CCC(C)[C@@H](NC)C(=O)N[C@@H](CC(C)C)C(=O)N1CC[C@@H]2Oc3ccc(OC)c(c3)/C=C\\NC(=O)[C@@H]3CCCN3C(=O)[C@H]21", "note": "(stereo partly shown) [ziziphine-O]", "values": [{"measurement": "antiplasmodial activity (in words)", "setting": "Plasmodium falciparum; Suksamrarn et al.", "result": "not active"}]}, {"molecule": "CCC(C)[C@H](C(=O)N[C@H](C(=O)N1CC[C@@H]2Oc3ccc(OC)c(c3)/C=C\\NC(=O)[C@@H]3CCCN3C(=O)[C@H]21)C(C)C)N(C)C", "note": "(stereo partly shown) [ziziphine-Q]", "values": [{"measurement": "antiplasmodial IC50", "setting": "Plasmodium falciparum; Suksamrarn et al.", "result": 3.5, "unit": "µg/mL"}, {"measurement": "IC50", "setting": "Plasmodium falciparum; [6]", "result": 5.9, "unit": "µM"}]}, {"molecule": "mauritine-L", "values": [{"measurement": "antiplasmodial activity against Plasmodium falciparum (in words)", "setting": "Plasmodium falciparum; Panseeta et al.", "result": "not"}]}, {"molecule": "nummularine-B methiodide", "values": [{"measurement": "antiplasmodial activity against Plasmodium falciparum (in words)", "setting": "Plasmodium falciparum; Panseeta et al.", "result": "not"}]}, {"molecule": "ziziphine-P", "values": [{"measurement": "antiplasmodial activity (in words)", "setting": "Plasmodium falciparum; Suksamrarn et al.", "result": "not active"}]}]}
